Results on 3 compounds are retold here after patent US20210128566A1, “NOVEL FUNCTIONALIZED PURINE-2,6-DIONES AND THEIR USE IN MEDICINE” (THOMAS HELLEDAYS STIFTELSE FÖR MEDICINSK FORSKNING, priority 2017, published 2021).

pIC50: −log10 of the molar value.

The target in one test is recombinant human NUDT5 (Homo sapiens, UniProt Q9UKK9). The test can be described thus: NUDT5 inhibitor activity by malachite green reporter assay. To be noted: Table 3; 6 nM NUDT5, 50 μM ADP-Ribose, 15 minutes at room temperature. In kind it is biochemical. In a few lines: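 Coupled ADP-ribose hydrolysis in 10 mM Tris-acetate pH 8.0, 40 mM NaCl, 10 mM Mg acetate, 0.005% Tween-20, 1 mM DTT: 6 nM NUDT5, 50 μM ADP-Ribose, 10 U/ml alkaline phosphatase, 15 min at room temperature. Pi read by malachite green at 630 nm; compounds 100 μM–1.7 nM, 3-fold; IC50 by curve fit.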

A further test concerns T47D^WT cells. The test can be described thus: Nuclear-targeted luciferase reporter of nuclear ATP production after R5020 stimulation. The format is cell-based. Particulars: hormone-starved T47D^WT cells, compound for two hours, then R5020; Compound 19 at 1.5 μM, Compounds 16/17 at 15 μM. The method, then: Top, a representative measurement of bioluminescence intensity over 60 minutes of R5020 treatment; bottom, box-and-whisker plots of bioluminescence quantitations from six independent experiments (center line, median; box limits, upper and lower quartiles; whiskers, minima and maxima; individual data points also shown). ns—not significant, *—p<0.05, **—p<0.01, ***—p<0.001; repeated measures two-way ANOVA analysis.
In HR+ breast cancer cells, NUDT5 activity is required to produce ATP in the nucleus following hormone stimulation (Wright, R. H. G. et al., Science, 352, 1221-1225 (2016)). A nuclear-targeted luciferase reporter system was employed to monitor ATP production after hormone stimulation.
Hormone-starved T47D^WT cells were treated with example compounds as described herein for two hours and then stimulated with the progesterone receptor agonist, R5020, for the time points indicated.
For orientation: A reporter such as luciferase makes a cellular process visible.

One may read the pIC50 as −log10 of the IC50, conventionally taken in molar units.

With `CCCCN1CCN(c2nc3c(c(=O)n(C)c(=O)n3C)n2Cc2nnc(-c3ccc(Cl)c(Cl)c3)o2)CC1` [Example 16, 8-(4-butylpiperazin-1-yl)-7-{[5-(3,4-dichlorophenyl)-1,3,4-oxadiazol-2-yl]methyl}-1,3-dimethyl-2,3,6,7-tetrahydro-1H-purine-2,6-dione], the negative logarithm of the IC50 (pIC50) on recombinant human NUDT5 was 7.27. Further, in the test on T47D^WT cells, the “nuclear luminescence (nuclear ATP production)” value (from here on “nuclear luminescence”) is listed as “Strong luminescence”.
In the case of `CCN1CCN(c2nc3c(c(=O)n(C)c(=O)n3C)n2Cc2nnc(-c3ccc(Cl)c(Cl)c3)o2)CC1` [Example 17, 7-{[5-(3,4-dichlorophenyl)-1,3,4-oxadiazol-2-yl]methyl}-8-(4-ethylpiperazin-1-yl)-1,3-dimethyl-2,3,6,7-tetrahydro-1H-purine-2,6-dione], on recombinant human NUDT5, the pIC50 was 7.41. The “nuclear luminescence” value with T47D^WT cells is recorded as “Strong luminescence”.
On to `Cn1c(=O)c2c(nc(N3CCNCC3)n2Cc2nnc(-c3ccc(Cl)c(Cl)c3)o2)n(C)c1=O` [Example 19, 7-{[5-(3,4-dichlorophenyl)-1,3,4-oxadiazol-2-yl]methyl}-1,3-dimethyl-8-(piperazin-1-yl)-2,3,6,7-tetrahydro-1H-purine-2,6-dione], for which the negative logarithm of the IC50 (pIC50) at recombinant human NUDT5 is 7.54. In the test on T47D^WT cells, the “nuclear luminescence” value is given as “reduced nuclear luminescence”.
